23 molecules from patent US20060228313A1, “Method of cosmetic depigmentation care by applying at least one aurone” (Coletica, priority 2005, published 2006) can be followed below.

The experiment has as its target T1, Human tyrosinase (Homo sapiens, UniProt P14679).
T1 construct: Normal human melanocytes (originating from abdominal plasty) are sown in a 24-well plate; endogenous in cells; host or cells: normal human melanocytes (abdominal plasty; donors of light, brown and black phototype)
T1 sequence (P14679 19-529): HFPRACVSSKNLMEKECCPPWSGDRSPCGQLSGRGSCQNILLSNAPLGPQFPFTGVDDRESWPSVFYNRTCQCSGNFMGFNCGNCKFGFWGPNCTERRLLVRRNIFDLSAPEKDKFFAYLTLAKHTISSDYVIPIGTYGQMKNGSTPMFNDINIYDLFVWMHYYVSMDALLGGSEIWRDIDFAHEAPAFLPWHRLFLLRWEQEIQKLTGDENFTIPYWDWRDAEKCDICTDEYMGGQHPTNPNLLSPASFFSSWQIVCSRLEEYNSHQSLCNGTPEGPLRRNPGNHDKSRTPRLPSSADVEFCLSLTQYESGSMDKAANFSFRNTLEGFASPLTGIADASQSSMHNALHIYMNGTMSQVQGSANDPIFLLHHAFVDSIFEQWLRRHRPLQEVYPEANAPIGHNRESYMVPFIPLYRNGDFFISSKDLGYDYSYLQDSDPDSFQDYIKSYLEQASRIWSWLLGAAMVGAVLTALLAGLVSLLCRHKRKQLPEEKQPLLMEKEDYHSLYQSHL
Description: Inhibition of human tyrosinase in a monolayer after application of the actives on normal human melanocytes. The class given is cell-based. Particulars: for Inhibition of human tyrosinase after application on normal human melanocytes, percentage inhibition: 24 hours. On the procedure:
Normal human melanocytes (originating from abdominal plasty) are sown in a 24-well plate at the rate of 80,000 cells per well. They are cultivated up to confluence and the actives are applied for 24 hours in the culture media. After 24 hours, the media are removed and the melanocytes are picked up by mechanical action. An extraction is made by heat shock and the supernatants are then recovered and then incubated with MBTH (Sigma) and L-Dopa (Sigma). The OD at 490 nm is measured after 30 minutes, and the inhibition is of the tyrosinase is calculated by comparing the OD at 490 nm to the protein level (measured in each culture well) of the test with respect to the ratio: OD 490 nm/concentration of protein of the negative control (non-treated control). […]

The structures appear in SMILES notation.

As for `CCc1ccccc1/C=C1\Oc2cc(O)cc(O)c2C1=O` [Example 7l], the “Inhibition of human tyrosinase after application on normal human melanocytes, percentage inhibition” value (from here on “Inhibition … percentage inhibition”) reads like this: (10^−4M) 0%; (10^−5M) 6.1%.

On to `O=C1/C(=C/c2ccc[nH]2)Oc2cc(O)cc(O)c21` [Example 7s, (Z)-4,6-Dihydroxy-2-[(pyrrole)methylene]benzofuran-3(2H)-one], for which the “Inhibition … percentage inhibition” value (10^−4M) was found to be 22.8% and the “Inhibition … percentage inhibition” value (10^−5M) came to 9.1%.

On to `Cc1cc(/C=C2\Oc3cc(O)cc(O)c3C2=O)oc1C` [Example 7o, (Z)-4,6-Dihydroxy-2-[(4,5-dimethylfuran)methylene]benzofuran-3(2H)-one], for which the “Inhibition … percentage inhibition” value (10^−4M) was determined as 13.6% and the “Inhibition … percentage inhibition” value (10^−5M) came to 4.5%. On to `COc1cc(OC)c2c(c1)O/C(=C\c1cccs1)C2=O` [Example 5p, (Z)-4,6-Dimethoxy-2-[(thiophene)methylene]benzofuran-3(2H)-one], for which the “Inhibition … percentage inhibition” value came out at 31.3% (10^−4M) and 6.4% (10^−5M). `CCc1ccc(/C=C2\Oc3cc(O)cc(O)c3C2=O)s1` [Example 7r, (Z)-4,6-Dihydroxy-2-[(5-ethylthiophene)methylene]benzofuran-3(2H)-one]: the “Inhibition … percentage inhibition” value by setting is: (10^−4M) 13.8%; (10^−5M) 0%. For `CC(C)c1ccc(/C=C2\Oc3cc(O)cc(O)c3C2=O)cc1` [Example 7i], the “Inhibition … percentage inhibition” value was 0% (10^−4M) and 31.86% (10^−5M).

Consider `O=C1/C(=C/c2cccs2)Oc2cc(O)cc(O)c21` [Example 7p, (Z)-4,6-Dihydroxy-2-[(thiophene)methylene]benzofuran-3(2H)-one], for which the “Inhibition … percentage inhibition” value came to 35.2% (10^−4M) and 15.3% (10^−5M). On to `COc1cc(OC)c2c(c1)O/C(=C\c1cc(C)c(C)o1)C2=O` [Example 5o, (Z)-4,6-Dimethoxy-2-[(4,5-dimethylfuran)methylene]benzofuran-3(2H)-one], for which the “Inhibition … percentage inhibition” value by setting is: (10^−4M) 23.2%; (10^−5M) 12.1%. Turning to `COc1cc(OC)c2c(c1)O/C(=C\c1[nH]c(C)cc1C)C2=O` [Example 5t, (Z)-4,6-Dimethoxy-2-[(3,5-dimethylpyrrole)methylene]benzofuran-3(2H)-one], the “Inhibition … percentage inhibition” value is 5.1% (10^−4M) and 0% (10^−5M).

In the case of `COc1cc(OC)c2c(c1)O/C(=C\c1ccc[nH]1)C2=O` [Example 5s, (Z)-4,6-Dimethoxy-2-[(pyrrole)methylene]benzofuran-3(2H)-one], the “Inhibition … percentage inhibition” value is, setting by setting: (10^−4M) 13.7%; (10^−5M) 0%. For the molecule `CCCc1ccc(/C=C2\Oc3cc(O)cc(O)c3C2=O)cc1` [Example 7h], the “Inhibition … percentage inhibition” value runs as follows: (10^−4M) 5.43%; (10^−5M) 26.88%. Regarding `CC(C)(C)c1ccc(/C=C2\Oc3cc(O)cc(O)c3C2=O)cc1` [Example 7k], the “Inhibition … percentage inhibition” value is, setting by setting: (10^−4M) 0%; (10^−5M) 25.1%. For the molecule `CCc1ccc(/C=C2\Oc3cc(OC)cc(OC)c3C2=O)o1` [Example 5n, (Z)-4,6-Dimethoxy-2-[(5-ethylfuran)methylene]benzofuran-3(2H)-one], the “Inhibition … percentage inhibition” value is, setting by setting: (10^−4M) 7.8%; (10^−5M) 0%. In the case of `Cc1cc(C)c(/C=C2\Oc3cc(O)cc(O)c3C2=O)[nH]1` [Example 7t, (Z)-4,6-Dihydroxy-2-[(3,5-dimethylpyrrole)methylene]benzofuran-3(2H)-one], the “Inhibition … percentage inhibition” value reads like this: (10^−4M) 26.4%; (10^−5M) 0%. The corresponding values for `CCc1ccccc1/C=C1\Oc2cc(O)ccc2C1=O` [Example 3b, (Z)-2-(2′-Ethyl)Benzylidene-6-Hydroxybenzofuran-3(2H)-one] are 0% and 0%.

For the molecule `O=C1/C(=C/c2ccccc2O)Oc2cc(O)cc(O)c21` [Example 9c], the “Inhibition … percentage inhibition” value is on record as 12.85% (10^−4M) and 4.32% (10^−5M). As for `COc1cc(OC)c2c(c1)O/C(=C\c1ccc(S(=O)(=O)O)cc1)C2=O` [Example 5e, (Z)-4,6-dimethoxy-2-(4′-sulfonatebenzylidene)benzofuran-3(2H)-one], the “Inhibition … percentage inhibition” value is listed as 0% (10^−4M) and 1.44% (10^−5M). As for `COc1cc(OC)c2c(c1)O/C(=C\c1ccco1)C2=O` [Example 5m, (Z)-4,6-Dimethoxy-2-[(furan)methylene]benzofuran-3(2H)-one], the “Inhibition … percentage inhibition” value is listed as 19.5% (10^−4M) and 6.4% (10^−5M). Take `O=c1cc(-c2ccc(O)cc2)oc2cc(O)cc(O)c12` [Apigenin, reference compound]: the “Inhibition of human tyrosinase on normal human melanocytes, result in words” value (model of Example 15) is on record as “do not inhibit tyrosinase”. On to `CCc1ccc(/C=C2\Oc3cc(O)cc(O)c3C2=O)o1` [Example 7n, (Z)-4,6-Dihydroxy-2-[(5-ethylfuran)methylene]benzofuran-3(2H)-one], for which the “Inhibition … percentage inhibition” value (10^−4M) turned out to be 28.5% and the “Inhibition … percentage inhibition” value (10^−5M) amounted to 13.4%. The corresponding values for `O=C1/C(=C/c2ccco2)Oc2cc(O)cc(O)c21` [Example 7m, (Z)-4,6-Dihydroxy-2-[(furan)methylene]benzofuran-3(2H)-one] are 23.6% and 6.4%.

On to `COc1cc(OC)c2c(c1)O/C(=C\c1ccc(S(=O)(=O)O)cc1S(=O)(=O)O)C2=O` [Example 5f, (Z)-4,6-dimethoxy-2-(2′,4′-disulfonatebenzylidene)benzofuran-3(2H)-one], for which the “Inhibition … percentage inhibition” value (10^−4M) came out at 9.36% and the “Inhibition … percentage inhibition” value (10^−5M) was determined as 2.88%.

As for `CCc1ccc(/C=C2\Oc3cc(OC)cc(OC)c3C2=O)s1` [Example 5r, (Z)-4,6-Dimethoxy-2-[(5-ethylthiophene)methylene]benzofuran-3(2H)-one], the “Inhibition … percentage inhibition” value was 11.9% (10^−4M) and 2.1% (10^−5M).
